From article PMC12406203 (Journal of Medicinal Chemistry, 2025)

Assays:
Assay in all cases: KINOMEscan
Assay type in all cases: binding
FLT3 = target: T1, FLT3 (Homo sapiens, UniProt P36888)
T1 construct: purchased Eurofins DiscoverX, LLC; host or cells: E. coli (T7 phage) or HEK-293
T1 sequence (P36888 27-993): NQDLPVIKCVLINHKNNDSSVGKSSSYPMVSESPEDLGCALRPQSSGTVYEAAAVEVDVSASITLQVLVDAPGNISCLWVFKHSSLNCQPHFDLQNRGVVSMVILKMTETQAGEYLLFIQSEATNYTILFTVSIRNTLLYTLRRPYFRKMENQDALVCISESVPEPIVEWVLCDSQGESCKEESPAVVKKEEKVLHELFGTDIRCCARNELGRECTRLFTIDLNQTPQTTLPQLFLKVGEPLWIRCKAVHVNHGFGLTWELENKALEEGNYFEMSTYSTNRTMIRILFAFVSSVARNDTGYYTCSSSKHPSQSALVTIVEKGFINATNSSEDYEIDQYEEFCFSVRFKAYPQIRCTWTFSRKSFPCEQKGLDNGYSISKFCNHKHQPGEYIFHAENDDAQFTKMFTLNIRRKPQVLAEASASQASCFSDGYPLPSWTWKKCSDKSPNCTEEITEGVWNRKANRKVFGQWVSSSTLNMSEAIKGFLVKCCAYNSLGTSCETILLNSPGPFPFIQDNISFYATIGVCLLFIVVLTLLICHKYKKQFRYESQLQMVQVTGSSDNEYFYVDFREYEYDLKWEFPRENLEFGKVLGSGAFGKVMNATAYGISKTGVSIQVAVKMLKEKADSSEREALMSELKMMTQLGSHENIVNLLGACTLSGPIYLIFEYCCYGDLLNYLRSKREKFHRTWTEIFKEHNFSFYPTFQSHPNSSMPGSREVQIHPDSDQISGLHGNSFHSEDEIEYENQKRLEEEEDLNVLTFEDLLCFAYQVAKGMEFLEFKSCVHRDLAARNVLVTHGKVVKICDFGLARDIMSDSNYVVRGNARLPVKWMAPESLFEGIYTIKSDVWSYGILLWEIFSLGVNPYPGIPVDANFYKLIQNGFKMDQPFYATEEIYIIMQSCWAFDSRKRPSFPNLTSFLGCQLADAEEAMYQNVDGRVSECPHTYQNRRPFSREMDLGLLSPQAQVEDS
Description: (§1) The kinase inhibition profile of compounds 94 and 95 was assessed against 103 protein kinases by Eurofins DiscoverX, LLC., using the KINOMEscan assay. Kinase-tagged T7 phage strains were grown in parallel in 24-well blocks in an E. coli host derived from the BL21 strain. E. coli were grown to log-phase and infected with T7 phage from a frozen stock (multiplicity of infection = 0.4) and incubated with shaking at 32 °C until lysis (90–150 min). The lysates were centrifuged (6000g) and filtered (0.2 μm) to remove cell debris. The remaining kinases were produced in HEK-293 cells and subsequently tagged with DNA for qPCR detection. […] The liganded beads were blocked with excess biotin and washed with blocking buffer (SeaBlock (Pierce), 1% BSA, 0.05% Tween 20, 1 mM DTT) to remove unbound ligand and to reduce nonspecific phage binding. […] Test compounds were prepared as 100× stocks in 100% DMSO and directly diluted into the assay. All reactions were performed in polypropylene 384-well plates in a final volume of 0.02 mL. […] The kinase concentration in the eluates was measured by qPCR.
(§2) The compound(s) were screened at the concentration(s) requested, and results for primary screen binding interactions are reported as RA (%), where lower numbers indicate stronger hits in the matrix. RA=(testcompoundsignal−PCsignal/NCsignal−PCsignal)×100

ROCK2 = target: T2, ROCK2 (Homo sapiens, UniProt O75116)
T2 construct: purchased Eurofins DiscoverX, LLC; host or cells: E. coli BL21-derived host (T7 phage) or HEK-293
T2 sequence (O75116 whole entry): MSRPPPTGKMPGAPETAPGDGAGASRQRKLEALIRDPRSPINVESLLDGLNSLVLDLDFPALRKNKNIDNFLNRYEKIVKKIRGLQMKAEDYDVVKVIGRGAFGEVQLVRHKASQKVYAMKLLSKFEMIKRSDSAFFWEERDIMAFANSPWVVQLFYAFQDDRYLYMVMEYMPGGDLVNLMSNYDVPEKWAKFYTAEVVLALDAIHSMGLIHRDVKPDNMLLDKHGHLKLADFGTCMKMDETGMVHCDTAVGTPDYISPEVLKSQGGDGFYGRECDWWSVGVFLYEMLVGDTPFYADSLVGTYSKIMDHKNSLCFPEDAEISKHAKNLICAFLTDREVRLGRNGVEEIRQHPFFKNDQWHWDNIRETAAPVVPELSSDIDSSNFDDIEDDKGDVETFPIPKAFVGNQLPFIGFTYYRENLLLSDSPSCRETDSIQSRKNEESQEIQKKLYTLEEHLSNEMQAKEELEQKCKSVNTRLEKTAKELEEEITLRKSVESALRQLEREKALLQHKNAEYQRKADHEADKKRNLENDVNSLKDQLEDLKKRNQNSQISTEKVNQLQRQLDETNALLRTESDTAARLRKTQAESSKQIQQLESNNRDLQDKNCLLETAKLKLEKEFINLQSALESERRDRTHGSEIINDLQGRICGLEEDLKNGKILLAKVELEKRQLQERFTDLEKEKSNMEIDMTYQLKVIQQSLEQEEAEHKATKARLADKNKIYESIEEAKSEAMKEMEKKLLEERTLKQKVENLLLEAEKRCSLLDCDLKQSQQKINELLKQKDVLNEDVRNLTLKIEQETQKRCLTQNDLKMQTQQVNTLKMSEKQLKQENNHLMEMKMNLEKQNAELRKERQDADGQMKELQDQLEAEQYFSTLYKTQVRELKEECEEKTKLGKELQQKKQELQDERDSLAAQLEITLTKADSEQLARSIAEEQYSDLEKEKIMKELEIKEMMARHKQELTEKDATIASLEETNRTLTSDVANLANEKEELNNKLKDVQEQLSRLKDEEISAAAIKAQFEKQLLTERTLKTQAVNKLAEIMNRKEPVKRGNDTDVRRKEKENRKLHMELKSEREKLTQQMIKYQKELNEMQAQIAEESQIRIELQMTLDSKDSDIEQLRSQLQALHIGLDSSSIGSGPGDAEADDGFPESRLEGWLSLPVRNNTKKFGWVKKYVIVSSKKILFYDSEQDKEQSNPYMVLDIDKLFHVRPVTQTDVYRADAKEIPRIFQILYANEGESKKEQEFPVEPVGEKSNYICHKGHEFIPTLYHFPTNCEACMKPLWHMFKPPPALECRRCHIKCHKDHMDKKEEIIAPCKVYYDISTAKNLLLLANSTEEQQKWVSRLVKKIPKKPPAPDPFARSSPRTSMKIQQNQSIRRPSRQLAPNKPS
Description: as §1, §2

ZAP70 = target: T3, ZAP70 (Homo sapiens, UniProt P43403)
T3 construct: purchased Eurofins DiscoverX, LLC; host or cells: E. coli BL21-derived host (T7 phage) or HEK-293
T3 sequence (P43403 1-619): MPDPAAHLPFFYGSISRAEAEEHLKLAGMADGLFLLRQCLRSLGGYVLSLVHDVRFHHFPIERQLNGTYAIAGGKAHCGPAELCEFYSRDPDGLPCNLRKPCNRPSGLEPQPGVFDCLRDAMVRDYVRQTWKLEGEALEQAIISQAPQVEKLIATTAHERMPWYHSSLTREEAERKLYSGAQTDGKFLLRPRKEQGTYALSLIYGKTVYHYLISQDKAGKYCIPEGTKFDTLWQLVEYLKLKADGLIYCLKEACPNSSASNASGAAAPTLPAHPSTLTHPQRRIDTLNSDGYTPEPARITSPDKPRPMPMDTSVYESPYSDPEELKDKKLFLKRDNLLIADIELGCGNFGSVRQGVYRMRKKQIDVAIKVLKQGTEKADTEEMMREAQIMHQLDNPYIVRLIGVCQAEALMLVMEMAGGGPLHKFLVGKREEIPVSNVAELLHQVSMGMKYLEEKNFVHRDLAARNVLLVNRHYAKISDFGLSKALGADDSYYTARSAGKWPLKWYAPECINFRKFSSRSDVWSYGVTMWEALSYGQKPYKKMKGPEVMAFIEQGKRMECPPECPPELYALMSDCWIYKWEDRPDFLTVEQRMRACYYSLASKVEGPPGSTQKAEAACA
Description: as §1, §2

SMILES | RA @ 1000nM (FLT3) [%] | RA @ 10000nM (FLT3) [%] | RA @ 1000nM (ROCK2) [%] | RA @ 10000nM (ROCK2) [%] | RA @ 1000nM (ZAP70) [%] | RA @ 10000nM (ZAP70) [%]
CC(C)Cn1ncc2cc(Cc3ccc(F)cc3F)c(C(=O)NCCN(C)C)cc21 [Compound 94, 5-(2,4-Difluorobenzyl)-N-(2-(dimethylamino)ethyl)-1-isobutyl-1H-indazole-6-carboxamide] | 100 | 90 | 87 | 96 | 100 | 79
CN(C)CCNC(=O)c1cc2c(cnn2CC2CCCCC2)cc1Cc1ccc(F)cc1F [Compound 95, 1-(Cyclohexylmethyl)-5-(2,4-difluorobenzyl)-N-(2-(dimethylamino)ethyl)-1H-indazole-6-carboxamide] | 100 | 100 | 83 | 100 | 100 | 100
